From US7166622B2, “Substituted phenylsulfonamide inhibitors of beta amyloid production” (Wyeth, priority 2002, dated 2007)
Where two headings read alike, the source gives them in different places.

How the values were obtained:
beta amyloid production = test: Repressor Release Assay (RRA); type: cell-based; conditions: for fold induction at 3 µg/mL: Conc 3 μg/ml; for fold induction at 3 µg/mL / fold induction at 10 µg/mL / fold induction at 20 µg/mL: read-out: APPI Fold Increase; for APPI % of Example #98: relative to Example 98
Procedure: CHO-K1 cells were cultured in whole DMEM media (DMEM—High Glucose with 10% fetal bovine serum, 1% Non-essential Amino Acids, and 1% Penicillin-Streptomycin) at 37° C. with 5% CO2. Two million cells were plated into 10-cm dishes 24 hrs prior to transfection.
Transient transfections were completed as recommended by Gibco BRL using their Lipofectamine Plus system. First, 6 μg of pRSVO-luc and 6 μg of APP-lacI construct DNA were added to 460 μL Opti-Mem transfection media and incubated with 30 μL Plus reagent for 15 minutes. Then, a lipid mixture of 40 μL Lipofectamine reagent and 460 μL Opti-Mem transfection media was incubated with the DNA-Plus reagent mixture for 15 minutes. During the DNA-lipid incubation, the CHO-K1 cells were washed once and covered in 5.0 mL DMEM media without Penicillin-Streptomycin. The DNA-lipid preparation was then layered onto these cells and incubated at 37° C. overnight.
[…] transfected cells per well (100 μL total volume) were plated into sterile, opaque Packard 96-well Culture-Plates in clear DMEM whole media (DMEM—without phenol red) and incubated at 37° C. with 5% CO2 for 3-5 hours.
Compounds were diluted using two different protocols; one protocol was used for compounds supplied neat (weighed powder in vial) and the other protocol was used for compounds supplied in solution (20 mM in DMSO in 96-well plates). For both protocols, 25 mM Hepes and 25 mM Hepes/1% DMSO were prepared fresh to be used as diluent. The Hepes/DMSO was used as the diluent control on all experimental plates.
The following table depicts the steps for compound dilution (please note that the last step was the addition of compound to cells/media in tissue culture plate).
Because some compounds were present in 96-well format at 20 mM, the following represents the protocol for their dilution (note that an average molecular weight of these compounds was used to calculate these dilutions and as above, the last step was the addition of compound to cells/media in tissue culture plate).
Once the compounds were diluted, they were applied in duplicate on cells in tissue culture plates (prepared above). Cells were incubated with compound at 37° C. with 5% CO2 for an additional 36-48 hours.
Luciferase assays (LucLite reagent, Packard) were performed and were read on a Packard TopCount instrument. Media was removed from each 96-well plate and replaced with 100 μL PBS per well (with Mg^2+ and Ca^2+). An equal volume (100 μL) of the LucLite lysis/substrate buffer was added to each well and the plates were sealed and mixed in the dark on a rotary shaker for 15-30 minutes at room temperature. Luciferase readings were then taken on the TopCount instrument. Measurements were expressed as relative light units (RLU) and are calculated and analyzed in MS Excel as follows: […]

CHO-K1 cells = test: Toxicity in RRA (loss of luciferase signal); conditions: toxicity = loss of signal (<0.75 fold increase)
Procedure: The beta amyloid inhibitory activity of the compounds of the present invention was determined using the Repressor Release Assay (RRA).
“Fold Increase” refers to the amount of luciferase activity (measured in relative light units) over diluent control. “SEM” refers to the standard error of the mean for fold increase.

[1] = luciferase activity over diluent control
[2] = Conc 10 μg/ml, luciferase activity over diluent control
[3] = Conc 20 μg/ml, luciferase activity (RLU) over diluent control
[4] = Conc 20 μg/ml, 1=non-toxic, 0=toxic
[5] = Conc 20 μg/ml, luciferase activity over diluent control

CC[C@H](C)[C@@H](CO)NS(=O)(=O)c1ccc(Br)cc1 [Example 98, 4-bromo-N-[(1S,2S)-1-(hydroxymethyl)-2-methylbutyl]-benzenesulfonamide]
fold induction at 3 µg/mL (beta amyloid production; [1]): 1.79
(%)APPI Toxicity (CHO-K1 cells; Conc 3 μg/ml): 1 (1=non-toxic)
(%)APPI Toxicity (CHO-K1 cells; Conc 10 μg/ml): 1 (1=non-toxic)
(%)APPI Toxicity (CHO-K1 cells; Conc 20 μg/ml): 1 (1=non-toxic)

CC[C@H](C)[C@H](NS(=O)(=O)c1ccc(Br)cc1)C(O)c1ccc(Cl)cc1 (stereo partly drawn) [Example 155, 4-bromo-N-{(1S,2S)-1-[(4-chlorophenyl)(hydroxy)methyl]-2-methylbutyl}benzenesulfonamide]
fold induction at 10 µg/mL (beta amyloid production; [2]): 4.37
(%)APPI Toxicity (CHO-K1 cells; Conc 10 μg/ml): 1 (1=non-toxic)

CC[C@H](C)[C@H](NS(=O)(=O)c1ccccc1F)C(O)(c1ccc(F)cc1)c1ccc(F)cc1 [Example 266, N-{(1S,2S)-1-[bis(4-fluorophenyl)(hydroxy)methyl]-2-methylbutyl}-2-fluorobenzenesulfonamide]
fold induction at 10 µg/mL (beta amyloid production; [2]): 1.57
(%)APPI Toxicity (CHO-K1 cells; Conc 10 μg/ml): 1 (1=non-toxic)

CCCCC[C@H](CC)[C@@H](CO)NS(=O)(=O)c1ccc(Br)cc1 [Example 81, 4-bromo-N-[(1S,2S)-2-ethyl-1-(hydroxymethyl)heptyl]benzenesulfonamide]
fold induction at 20 µg/mL (beta amyloid production; [3]): 5
(%)APPI Toxicity (CHO-K1 cells; [4]): 1 (1=non-toxic)

CC[C@H](C)[C@H](NS(=O)(=O)c1ccccc1F)C(O)(CC)CC [Example 265, N-{(1S)-2-ethyl-2-hydroxy-1-[(1S)-1-methylpropyl]butyl}-2-fluorobenzenesulfonamide]
fold induction at 10 µg/mL (beta amyloid production; [2]): 1.78
(%)APPI Toxicity (CHO-K1 cells; Conc 10 μg/ml): 1 (1=non-toxic)

C=C(C)C(O)[C@@H](NS(=O)(=O)c1ccc(F)cc1)[C@@H](C)CC (stereo partly drawn) [Example 138, 4-fluoro-N-{(1S)-2-hydroxy-3-methyl-1-[(1S)-1-methylpropyl]-3-butenyl}benzenesulfonamide]
fold induction at 10 µg/mL (beta amyloid production; [2]): 1.57
(%)APPI Toxicity (CHO-K1 cells; Conc 10 μg/ml): 1 (1=non-toxic)

CC[C@H](C)[C@@H](CO)NS(=O)(=O)c1cccc(Cl)c1 [Example 3, 3-chloro-N-[(1S,2S)-1-(hydroxymethyl)-2-methylbutyl]benzenesulfonamide]
fold induction at 20 µg/mL (beta amyloid production; [5]): 3.6
(%)APPI Toxicity (CHO-K1 cells; Conc 20 μg/ml): 1 (1=non-toxic)

CC[C@H](C)[C@H](NS(=O)(=O)c1ccc(Cl)cc1)C(O)(c1ccccc1)c1ccccc1 [Example 227, 4-chloro-N-{(1S,2S)-1-[hydroxy(diphenyl)methyl]-2-methylbutyl}benzenesulfonamide]
fold induction at 10 µg/mL (beta amyloid production; [2]): 1.65
(%)APPI Toxicity (CHO-K1 cells; Conc 10 μg/ml): 1 (1=non-toxic)

C=C(C)C(O)(C(=C)C)[C@@H](NS(=O)(=O)c1ccc(Br)cc1)[C@@H](C)CC [Example 219, 4-bromo-N-{(1S)-2-hydroxy-2-isopropenyl-3-methyl-1-[(1S)-1-methylpropyl]-3-butenyl}benzenesulfonamide]
fold induction at 10 µg/mL (beta amyloid production; [2]): 1.8
fold induction at 20 µg/mL (beta amyloid production; [5]): 2.8
(%)APPI Toxicity (CHO-K1 cells; Conc 10 μg/ml): 1 (1=non-toxic)
(%)APPI Toxicity (CHO-K1 cells; Conc 20 μg/ml): 1 (1=non-toxic)

CCC[C@H](CC(C)C)[C@@H](CO)NS(=O)(=O)c1ccc(Br)cc1 [Example 78, 4-bromo-N-[(1S,2R)-1-(hydroxymethyl)-4-methyl-2-propylpentyl]benzenesulfonamide]
fold induction at 20 µg/mL (beta amyloid production; [3]): 4.4
(%)APPI Toxicity (CHO-K1 cells; [4]): 1 (1=non-toxic)

O=S(=O)(NC1(CO)CC2CCC1C2)c1ccc(Br)cc1 (stereo not drawn) [Example 121, 4-bromo-N-[2-(hydroxymethyl)bicyclo[2.2.1.]hept-2-yl]benzenesulfonamide]
APPI Fold Increase (beta amyloid production; [5]): 1.7 fold
APPI % of Example #98 (beta amyloid production; Conc 20 μg/ml): 45.1%
(%)APPI Toxicity (CHO-K1 cells; Conc 20 μg/ml): 1 (1=non-toxic)

C=CC(O)[C@@H](NS(=O)(=O)c1ccc(Br)cc1)[C@@H](C)CC (stereo partly drawn) [Example 151, 4-bromo-N-{(1S)-2-hydroxy-1-[(1S)-1-methylpropyl]-3-butenyl}benzenesulfonamide]
fold induction at 10 µg/mL (beta amyloid production; [2]): 2.9
(%)APPI Toxicity (CHO-K1 cells; Conc 10 μg/ml): 1 (1=non-toxic)

CC(C)C[C@@H](c1ccco1)[C@@H](CO)NS(=O)(=O)c1ccc(Br)cc1 [Example 86, 4-bromo-N-[(1S,2R)-2-(2-furyl)-1-(hydroxymethyl)-4-methylpentyl]benzenesulfonamide]
fold induction at 20 µg/mL (beta amyloid production; [3]): 1.6
(%)APPI Toxicity (CHO-K1 cells; [4]): 1 (1=non-toxic)

4-bromo-N-((1S,2 S)-1-{hydroxy-[4-(methylsulfanyl)phenyl]methyl}-2-methylbutyl) benzenesulfonamide [Example 163]
APPI Fold Increase (beta amyloid production; [2]): 1.64 fold
APPI % of Example #98 (beta amyloid production; Conc 10 μg/ml): 69.41%
(%)APPI Toxicity (CHO-K1 cells; Conc 10 μg/ml): 1 (1=non-toxic)

N-{(1S)-2-allyl-2-hydroxy 1-[(1S)-1-methylpropyl]-4-pentenyl}-4-bromo benzenesulfonamide [Example 216]
APPI Fold Increase (beta amyloid production; [2]): 1.58 fold
APPI % of Example #98 (beta amyloid production; Conc 10 μg/ml): 72.76%
(%)APPI Toxicity (CHO-K1 cells; Conc 10 μg/ml): 1 (1=non-toxic)

CC[C@H](C)[C@H](NS(=O)(=O)c1ccc(Cl)cc1)C(O)c1ccc(SC)cc1 (stereo partly drawn) [Example 182, 4-chloro-N-((1S,2S)-1-{hydroxy[4-(methylsulfanyl)phenyl]methyl}-2-methylbutyl) benzenesulfonamide]
APPI Fold Increase (beta amyloid production; [2]): 2.58 fold
APPI % of Example #98 (beta amyloid production; Conc 10 μg/ml): 122.24%
(%)APPI Toxicity (CHO-K1 cells; Conc 10 μg/ml): 1 (1=non-toxic)

C=CCC(O)[C@@H](NS(=O)(=O)c1ccc(Br)cc1)[C@@H](C)CC (stereo partly drawn) [Example 152, 4-bromo-N-{(1S)-2-hydroxy-1-[(1S)-1-methylpropyl]-4-pentenyl}benzenesulfonamide]
fold induction at 3 µg/mL (beta amyloid production; [1]): 1.6
fold induction at 10 µg/mL (beta amyloid production; [2]): 6.64
(%)APPI Toxicity (CHO-K1 cells; Conc 3 μg/ml): 1 (1=non-toxic)
(%)APPI Toxicity (CHO-K1 cells; Conc 10 μg/ml): 1 (1=non-toxic)

CCCCCCC(O)[C@@H](NS(=O)(=O)c1cccc(Cl)c1)[C@@H](C)CC (stereo partly drawn) [Example 187, 3-chloro-N-{(1S)-2-hydroxy-1-[(1S)-1-methylpropyl]octyl}benzenesulfonamide]
fold induction at 10 µg/mL (beta amyloid production; [2]): 9.02
(%)APPI Toxicity (CHO-K1 cells; Conc 10 μg/ml): 1 (1=non-toxic)

CCCCC[C@H](C)[C@@H](CO)NS(=O)(=O)c1ccc(Br)cc1 [Example 80, 4-bromo-N-[(1S,2S)-1-(hydroxymethyl)-2-methylheptyl]benzenesulfonamide]
fold induction at 20 µg/mL (beta amyloid production; [3]): 3.9
(%)APPI Toxicity (CHO-K1 cells; [4]): 1 (1=non-toxic)

CC[C@H](C)[C@@H](CO)NS(=O)(=O)c1ccc(Br)c(Br)c1 [Example 22, 3,4-dibromo-N-[(1S,2S)-1-(hydroxymethyl)-2-methylbutyl]benzenesulfonamide]
fold induction at 20 µg/mL (beta amyloid production; [5]): 1.7
(%)APPI Toxicity (CHO-K1 cells; Conc 20 μg/ml): 1 (1=non-toxic)

CC[C@H](C)[C@@H](CO)N(CC1CCC1)S(=O)(=O)c1ccc(Cl)cc1 [Example 44, 4-chloro-N-(cyclobutylmethyl)-N-[(1S,2S)-1-(hydroxymethyl)-2-methylbutyl] benzenesulfonamide]
APPI Fold Increase (beta amyloid production; [5]): 2.6 fold
APPI % of Example #98 (beta amyloid production; Conc 20 μg/ml): 95.7%
(%)APPI Toxicity (CHO-K1 cells; Conc 20 μg/ml): 1 (1=non-toxic)

CC[C@H](C)[C@H](NS(=O)(=O)c1ccccc1F)C(O)c1ccc(OC)cc1 (stereo partly drawn) [Example 209, 2-fluoro-N-{(1S,2S)-1-[hydroxy(4-methoxyphenyl)methyl]-2-methylbutyl} benzenesulfonamide]
APPI Fold Increase (beta amyloid production; [2]): 1.81 fold
APPI % of Example #98 (beta amyloid production; Conc 10 μg/ml): 88.04%
(%)APPI Toxicity (CHO-K1 cells; Conc 10 μg/ml): 1 (1=non-toxic)

O=S(=O)(N[C@H](CO)CC1CCCCC1)c1ccc(Cl)cc1 [Example 95, 4-chloro-N-[(1S)-2-cyclohexyl-1-(hydroxymethyl)ethyl]benzenesulfonamide]
fold induction at 20 µg/mL (beta amyloid production; [5]): 1.6
(%)APPI Toxicity (CHO-K1 cells; Conc 20 μg/ml): 1 (1=non-toxic)

CCCCC(O)(CCCC)[C@@H](NS(=O)(=O)c1cccc(Cl)c1)[C@@H](C)CC [Example 251, N-{(1S)-2-butyl-2-hydroxy-1-[(1S)-1-methylpropyl]hexyl}-3-chlorobenzenesulfonamide]
fold induction at 10 µg/mL (beta amyloid production; [2]): 3.4
(%)APPI Toxicity (CHO-K1 cells; Conc 10 μg/ml): 1 (1=non-toxic)

3-chloro-N-{(1S)-2-hydroxy-2-isopropenyl-3-methyl-1-[(18)-1-methylpropyl]-3-butenyl}benzenesulfonamide [Example 257]
APPI Fold Increase (beta amyloid production; [2]): 2.54 fold
APPI % of Example #98 (beta amyloid production; Conc 10 μg/ml): 94.5%
APPI Fold Increase (beta amyloid production; [5]): 2.5 fold
APPI % of Example #98 (beta amyloid production; Conc 20 μg/ml): 68.8%
(%)APPI Toxicity (CHO-K1 cells; Conc 10 μg/ml): 1 (1=non-toxic)
(%)APPI Toxicity (CHO-K1 cells; Conc 20 μg/ml): 1 (1=non-toxic)
